The values that follow are results of earlier work, collected in patent US20190100806A1, “MARKER FOR PREDICTING TREATMENT RESPONSE TO ANTI-CANCER AGENT IN SOLID CANCER PATIENTS” (DAEWOONG PHARMACEUTICAL CO., LTD., priority 2016, published 2019).

Data set [1] has as its system PC-3 (human prostate cancer) cells. Particulars: PC-3 cells, PTEN-deficient; read-out: median effective concentration (EC50).
Data set [2] concerns HCC70 (human breast ductal carcinoma) cells. The settings on record: PTEN-deficient, read-out: median effective concentration (EC50).
Data set [3] relates to Akt phosphorylation (Ser473). The settings on record: single dose, mouse model xenografted with PC-3 cells.
Data set [4] concerns RAC serine/threonine-protein kinase (Akt) phosphorylation. Particulars: mouse models xenografted with human PTEN-deficient tumor cells. Background: A xenograft is tissue or cells of one species grown in another, often human tumour cells in immunodeficient mice.

Consider `Cc1c(Cn2c(C)nc3c(C(=O)O)cc(N4CCOCC4)cc32)cccc1C(F)(F)F` [GSK-2636771], for which the results for the EC50 in data set [1] and in data set [2] were 36 nM and 72 nM, respectively. Besides, the “Akt phosphorylation (Ser473)” value in data set [3] is given as “reduce Akt phosphorylation (Ser473)”. Also, the “phosphorylation of Akt” value in data set [4] is recorded as “inhibits the phosphorylation of RAC serine/threonine-protein kinase (Akt) in a dose-dependent manner”.
